Results as given in ChEMBL document CHEMBL3822390, “Synthesis, characterization and anti-cancer activity of a peptide nucleolipid bioconjugate” (2016).

Key:
Assay type in all cases: functional
[1] = Cytotoxicity against human MOLT4 cells assessed as cell growth at 10 uM after 48 hrs by SRB assay; conditions: MOLT-4, 48 h, read-out: Activity
[2] = Cytotoxicity against human PC3 cells assessed as cell growth at 10 uM after 48 hrs by SRB assay; conditions: PC-3, 48 h, read-out: Activity
[3] = Cytotoxicity against human UACC257 cells assessed as cell growth at 10 uM after 48 hrs by SRB assay; conditions: UACC-257, 48 h, read-out: Activity
HT-29 = test: Cytotoxicity against human HT-29 cells assessed as cell growth at 10 uM after 48 hrs by SRB assay; conditions: HT-29, 48 h, read-out: Activity
[4] = Cytotoxicity against human LOXIMVI cells assessed as cell growth at 10 uM after 48 hrs by SRB assay; conditions: LOX IMVI, read-out: Activity
[5] = Cytotoxicity against human SNB19 cells assessed as cell growth at 10 uM after 48 hrs by SRB assay; conditions: SNB-19, 48 h, read-out: Activity
[6] = Cytotoxicity against human SNB75 cells assessed as cell growth at 10 uM after 48 hrs by SRB assay; conditions: SNB-75, 48 h, read-out: Activity
EKVX [7] = test: Cytotoxicity against human EKVX cells assessed as cell growth at 10 uM after 48 hrs by SRB assay; conditions: read-out: Activity
SN12C = test: Cytotoxicity against human SN12C cells assessed as cell growth at 10 uM after 48 hrs by SRB assay; conditions: read-out: Activity
K562 = test: Cytotoxicity against human K562 cells assessed as cell growth at 10 uM after 48 hrs by SRB assay; conditions: K562, 48 h, read-out: Activity
NCI-H322M = test: Cytotoxicity against human NCI-H322M cells assessed as cell growth at 7.25 uM after 48 hrs by SRB assay; conditions: read-out: Activity
U-251 = test: Cytotoxicity against human U251 cells assessed as cell growth at 7.25 uM after 48 hrs by SRB assay; conditions: U-251, 48 h, read-out: Activity
[8] = Cytotoxicity against human UACC62 cells assessed as cell growth at 7.25 uM after 48 hrs by SRB assay; conditions: UACC-62, 48 h, read-out: Activity
[9] = Cytotoxicity against human UO31 cells assessed as cell growth at 7.25 uM after 48 hrs by SRB assay; conditions: UO-31, 48 h, read-out: Activity
A498 [10] = test: Cytotoxicity against human A498 cells assessed as cell growth at 7.25 uM after 48 hrs by SRB assay; conditions: A498, 48 h, read-out: Activity
[11] = Cytotoxicity against human COLO205 cells assessed as cell growth at 7.25 uM after 48 hrs by SRB assay; conditions: COLO 205, 48 h, read-out: Activity
[12] = Cytotoxicity against human LOXIMVI cells assessed as cell growth at 7.25 uM after 48 hrs by SRB assay; conditions: LOX IMVI, read-out: Activity
[13] = Cytotoxicity against human HOP62 cells assessed as cell growth at 7.25 uM after 48 hrs by SRB assay; conditions: HOP-62, 48 h, read-out: Activity
[14] = Cytotoxicity against human HL-60(TB) cells assessed as cell growth at 7.25 uM after 48 hrs by SRB assay; conditions: HL-60, 48 h, read-out: Activity
[15] = Cytotoxicity against human HOP92 cells assessed as cell growth at 7.25 uM after 48 hrs by SRB assay; conditions: HOP-92, 48 h, read-out: Activity
NCI-H226 = test: Cytotoxicity against human NCI-H226 cells assessed as cell growth at 7.25 uM after 48 hrs by SRB assay; conditions: NCI-H226, 48 h, read-out: Activity
MDA-MB-468 = test: Cytotoxicity against human MDA-MB-468 cells assessed as cell growth at 7.25 uM after 48 hrs by SRB assay; conditions: MDA-MB-468, 48 h, read-out: Activity
[16] = Cytotoxicity against human SKOV3 cells assessed as cell growth at 7.25 uM after 48 hrs by SRB assay; conditions: SK-OV-3, 48 h, read-out: Activity
A549 [17] = test: Cytotoxicity against human A549 cells assessed as cell mortality at 7.25 uM after 48 hrs by SRB assay; conditions: A549, 48 h
[18] = Cytotoxicity against human RPMI8226 cells assessed as cell growth at 7.25 uM after 48 hrs by SRB assay; conditions: RPMI-8226, 48 h, read-out: Activity
CCRF-CEM = test: Cytotoxicity against human CCRF-CEM cells assessed as cell growth at 7.25 uM after 48 hrs by SRB assay; conditions: read-out: Activity
[19] = Cytotoxicity against human SF295 cells assessed as cell growth at 7.25 uM after 48 hrs by SRB assay; conditions: SF-295, 48 h, read-out: Activity
[20] = Cytotoxicity against human SW620 cells assessed as cell growth at 7.25 uM after 48 hrs by SRB assay; conditions: SW-620, 48 h, read-out: Activity
SK-MEL-2 = test: Cytotoxicity against human SK-MEL-2 cells assessed as cell growth at 7.25 uM after 48 hrs by SRB assay; conditions: SK-MEL-2, 48 h, read-out: Activity
[21] = Cytotoxicity against human HCT116 cells assessed as cell growth at 2.13 uM after 48 hrs by SRB assay; conditions: HCT-116, 48 h, read-out: Activity
EKVX [22] = test: Cytotoxicity against human EKVX cells assessed as cell growth at 2.13 uM after 48 hrs by SRB assay; conditions: read-out: Activity
A498 [23] = test: Cytotoxicity against human A498 cells assessed as cell growth at 2.13 uM after 48 hrs by SRB assay; conditions: A498, 48 h, read-out: Activity
SK-MEL-28 = test: Cytotoxicity against human SK-MEL-28 cells assessed as cell growth at 2.13 uM after 48 hrs by SRB assay; conditions: SK-MEL-28, 48 h, read-out: Activity
A549 [24] = test: Cytotoxicity against human A549 cells assessed as cell growth at 2.13 uM after 48 hrs by SRB assay; conditions: A549, 48 h, read-out: Activity
[25] = Cytotoxicity against human HL-60(TB) cells assessed as cell growth at 2.13 uM after 48 hrs by SRB assay; conditions: HL-60, 48 h, read-out: Activity
[26] = Cytotoxicity against human PC3 cells assessed as cell growth at 2.13 uM after 48 hrs by SRB assay; conditions: PC-3, 48 h, read-out: Activity
A549 [27] = test: Cytotoxicity against human A549 cells assessed as cell mortality at 2.13 uM after 48 hrs by SRB assay; conditions: A549, 48 h
[28] = Cytotoxicity against human LOXIMVI cells assessed as cell growth at 2.13 uM after 48 hrs by SRB assay; conditions: LOX IMVI, read-out: Activity
[29] = Cytotoxicity against human HOP92 cells assessed as cell growth at 2.13 uM after 48 hrs by SRB assay; conditions: HOP-92, 48 h, read-out: Activity
NCI-H460 = test: Cytotoxicity against human NCI-H460 cells assessed as cell growth at 2.13 uM after 48 hrs by SRB assay; conditions: NCI-H460, 48 h, read-out: Activity

For `CC(C)C[C@H](NC(=O)[C@H](CCCCN)NC(=O)[C@H](C)NC(=O)[C@H](CC(C)C)NC(=O)[C@H](CCCCN)NC(=O)[C@H](CCCCN)NC(=O)[C@H](C)NC(=O)[C@H](CC(C)C)NC(=O)[C@H](CCCCN)NC(=O)[C@H](C)NC(=O)[C@H](CC(C)C)NC(=O)[C@H](CCCCN)NC(=O)[C@@H](N)CC(=O)O)C(=O)N[C@@H](C)C(=O)N[C@@H](CCCCN)C(=O)N[C@@H](C)C(=O)N[C@@H](CCCCN)C(N)=O`, the growth at 10 µM [1] was 86.4%, the growth at 10 µM [2] was 94.7% and the growth at 10 µM [3] was 71.8%. It also gave a growth at 10 µM (HT-29) of 94.8%, a growth at 10 µM [4] of 97.2% and a growth at 10 µM [5] of 106%. The growth at 10 µM [6] was 98.8%, the growth at 10 µM (EKVX [7]) was 104% and the growth at 10 µM (SN12C) was 99%. The growth at 10 µM (K562) was 99.8%.
With `CCCCCCCCCCCCCCCC(=O)NCCCC[C@H](NC(=O)[C@H](C)NC(=O)[C@H](CCCCN)NC(=O)[C@H](C)NC(=O)[C@H](CC(C)C)NC(=O)[C@H](CCCCN)NC(=O)[C@H](C)NC(=O)[C@H](CC(C)C)NC(=O)[C@H](CCCCN)NC(=O)[C@H](CCCCN)NC(=O)[C@H](C)NC(=O)[C@H](CC(C)C)NC(=O)[C@H](CCCCN)NC(=O)[C@H](C)NC(=O)[C@H](CC(C)C)NC(=O)[C@H](CCCCN)NC(=O)[C@@H](N)CC(=O)O)C(N)=O` the growth at 7.25 µM (NCI-H322M) was 108%, the growth at 7.25 µM (U-251) was 91.3% and the growth at 7.25 µM [8] was 102%. The growth at 7.25 µM [9] was 87.3%, the growth at 7.25 µM (A498 [10]) was 111% and the growth at 7.25 µM [11] was 112%. It also gave a growth at 7.25 µM [12] of 95.6%, a growth at 7.25 µM [13] of 99.8% and a growth at 7.25 µM [14] of 93.1%. For the same compound, the growth at 7.25 µM [15] was 113%, the growth at 7.25 µM (NCI-H226) was 99.5% and the growth at 7.25 µM (MDA-MB-468) was 95.9%. For the same compound, the growth at 7.25 µM [16] was 99.8%, the mortality at 7.25 µM (A549 [17]) was 32% and the growth at 7.25 µM [18] was 103%. The growth at 7.25 µM (CCRF-CEM) was 111%, the growth at 7.25 µM [19] was 110% and the growth at 7.25 µM [20] was 107%. It also gave a growth at 7.25 µM (SK-MEL-2) of 93.1%.
`CCCCCCCCCCCCCCCCNCCO[C@H]1C[C@H](n2cc(C)c(=O)[nH]c2=O)O[C@@H]1C(=O)NCCCC[C@H](NC(=O)[C@H](C)NC(=O)[C@H](CCCCN)NC(=O)[C@H](C)NC(=O)[C@H](CC(C)C)NC(=O)[C@H](CCCCN)NC(=O)[C@H](C)NC(=O)[C@H](CC(C)C)NC(=O)[C@H](CCCCN)NC(=O)[C@H](CCCCN)NC(=O)[C@H](C)NC(=O)[C@H](CC(C)C)NC(=O)[C@H](CCCCN)NC(=O)[C@H](C)NC(=O)[C@H](CC(C)C)NC(=O)[C@H](CCCCN)NC(=O)[C@@H](N)CC(=O)O)C(N)=O` showed a growth at 2.13 µM [21] of 99.9%, a growth at 2.13 µM (EKVX [22]) of 103% and a growth at 2.13 µM (A498 [23]) of 109%. It also gave a growth at 2.13 µM (SK-MEL-28) of 102%, a growth at 2.13 µM (A549 [24]) of 68.7% and a growth at 2.13 µM [25] of 93.8%. For the same compound, the growth at 2.13 µM [26] was 92.3%, the mortality at 2.13 µM (A549 [27]) was 31% and the growth at 2.13 µM [28] was 94.6%. It also gave a growth at 2.13 µM [29] of 86.8% and a growth at 2.13 µM (NCI-H460) of 109%.
